Reference: patent US9540343B2 (Gilead Sciences, Inc., priority 2011, dated 2017)

Experiments:
HIV-IIIb = assay: Test A: Antiviral assay in MT4 cells; assay type: cell-based, HIV-1; settings: Human immunodeficiency virus 1, IIIB, MT4, 120 h, read-out: % inhibition at 2 μM, percent inhibition of virus-induced cell killing, from dose response curve at 2 uM drug; MT-4 cells infected with HIV-IIIb, 5 days, CellTiter-Glo
in vitro = assay: in vitro
Method in brief: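 Cytoprotection read-out: CellTiter-Glo chemiluminescence after 5 days at 37 °C of HIV-IIIb-infected MT-4 cells (m.o.i. 0.003) with compound in 10-point 3-fold dilutions, quadruplicate, 10% FBS. Cytotoxicity (CC50) measured identically without virus.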

[1] = human, uninfected MT-4 cells, CC50 (nM), same protocol as Test A, CellTiter-Glo
[2] = human, CC50 (nM), uninfected MT-4 cells, same protocol as Test A, CellTiter-Glo

Structure (SMILES) | inhibition at 2 µM (HIV-IIIb) | CC50 at 5 days (in vitro; [1]) | CC50 at 5 days (in vitro; [2])
NC(=O)c1cc(-c2cccnc2[C@H](Cc2cc(F)cc(F)c2)NC(=O)Cn2nc(C(F)(F)F)c3c2C2CC2C3=O)ccc1F (stereo partly drawn) [Example 465B, 5-(2-((1S)-2-(3,5-difluorophenyl)-1-(2-(4-oxo-3-(trifluoromethyl)-4,4-a,5,5a-tetrahydro-1H-cyclopropa[4,5]cyclopenta[1,2-c]pyrazol-1-yl)acetamido)ethyl)pyridin-3-yl)-2-fluorobenzamide] | 3% | > 53200 nM | 
NC(=O)c1cc(-c2cccnc2[C@H](Cc2cc(F)cc(F)c2)NC(=O)Cn2nc(C(F)(F)F)c3c2CCC2(C3)OCCO2)ccc1F [Example 468D, (S)-5-(2-(2-(3,5-difluorophenyl)-1-(2-(3′-(trifluoromethyl)-6′,7′-dihydrospiro[[1,3]dioxolane-2,5′-indazole]-1′(4′H)-yl)acetamido)ethyl)pyridin-3-yl)-2-fluorobenzamide] | 14% | > 53000 nM | 
NC(=O)c1cc(-c2cccnc2[C@H](Cc2cc(F)cc(F)c2)NC(=O)Cc2n[nH]c3ccccc23)ccc1F [Example 469, 5-(2-(1-(2-(1H-indazol-3-yl)acetamido)-2-(3,5-difluorophenyl)ethyl)pyridin-3-yl)-2-fluorobenzamide] | 17% | > 53200 nM | 
Nc1cc(-c2cccnc2[C@H](Cc2cc(F)cc(F)c2)NC(=O)Cc2c[nH]c3ccc(F)cc23)ccc1F [Example 470, (S)—N-(1-(3-(3-amino-4-fluorophenyl)pyridin-2-yl)-2-(3,5-difluorophenyl)ethyl)-2-(5-fluoro-1H-indol-3-yl)acetamide] | 68% | 20800 nM | 
NC(=O)c1cc(-c2cccnc2[C@H](Cc2cc(F)cc(F)c2)NC(=O)Cn2ncc3c2CCCC3)ccc1F [Example 471, (S)-5-(2-(2-(3,5-difluorophenyl)-1-(2-(4,5,6,7-tetrahydro-1H-indazol-1-yl)acetamido)ethyl)pyridin-3-yl)-2-fluorobenzamide] | 62% | > 53200 nM | 
CC(=O)Nc1cc(-c2cccnc2[C@H](Cc2cc(F)cc(F)c2)NC(=O)Cc2c[nH]c3ccc(F)cc23)ccc1F [Example 473, (S)—N-(1-(3-(3-acetamido-4-fluorophenyl)pyridin-2-yl)-2-(3,5-difluorophenyl)ethyl)-2-(5-fluoro-1H-indol-3-yl)acetamide] | 18% | 14600 nM | 
O=C(Cn1nc(C(F)(F)F)c2c1CCCC2)NC(Cc1cc(F)cc(F)c1)c1nccnc1-c1ccc(Cl)cc1 (centres unmarked) [Example 474, N-(1-(3-(4-chlorophenyl)pyrazin-2-yl)-2-(3,5-difluorophenyl)ethyl)-2-(3-(trifluoromethyl)-4,5,6,7-tetrahydro-1H-indazol-1-yl)acetamide] | 17% | 9980 nM | 
Cc1cc2ncn(CC(=O)NC(Cc3cc(F)cc(F)c3)c3nccnc3-c3ccc(Cl)cc3)c2cc1C (centres unmarked) [Example 475, N-(1-(3-(4-chlorophenyl)pyrazin-2-yl)-2-(3,5-difluorophenyl)ethyl)-2-(5,6-dimethyl-1H-benzo[d]imidazol-1-yl)acetamide] | 23% | 20400 nM | 
NC(=O)c1cc(-c2cccnc2[C@H](Cc2cc(F)cc(F)c2)NC(=O)C2(c3ccccc3)CC2)ccc1F [Example 477, (S)-5-(2-(2-(3,5-difluorophenyl)-1-(1-phenylcyclopropanecarboxamido)ethyl)pyridin-3-yl)-2-fluorobenzamide] | 0% | 21400 nM | 
NC(=O)c1cccc(-c2cccnc2[C@H](Cc2cc(F)cc(F)c2)NC(=O)Cc2c[nH]c3ccccc23)c1 [Example 480, (S)-3-(2-(1-(2-(1H-indol-3-yl)acetamido)-2-(3,5-difluorophenyl)ethyl)pyridin-3-yl)benzamide] | 93% | 27800 nM | 
Cc1cccc2[nH]cc(CC(=O)N[C@@H](Cc3cc(F)cc(F)c3)c3ncccc3-c3cccc(C(N)=O)c3)c12 [Example 481, (S)-3-(2-(2-(3,5-difluorophenyl)-1-(2-(4-methyl-1H-indol-3-yl)acetamido)ethyl)pyridin-3-yl)benzamide] | 53% | 22900 nM | 
Cc1cc2cnn(CC(=O)N[C@@H](Cc3cc(F)cc(F)c3)c3ncccc3-c3ccc(F)c(C(N)=O)c3)c2cc1C [Example 485, (S)-5-(2-(2-(3,5-difluorophenyl)-1-(2-(5,6-dimethyl-1H-indazol-1-yl)acetamido)ethyl)pyridin-3-yl)-2-fluorobenzamide] | 43% | 22200 nM | 
CC(=O)c1c(C)n(CC(=O)N[C@@H](Cc2cc(F)cc(F)c2)c2ncccc2-c2ccc(Cl)cc2)c2ccccc12 [Example 486, (S)-2-(3-acetyl-2-methyl-1H-indol-1-yl)-N-(1-(3-(4-chlorophenyl)pyridin-2-yl)-2-(3,5-difluorophenyl)ethyl)acetamide] | 76% |  | 7080 nM
O=C1Cc2c(cccc2-c2cccnc2[C@H](Cc2cc(F)cc(F)c2)NC(=O)Cn2nc(C(F)F)c3c2C(F)(F)CCC3(F)F)N1 [Example 489D, (S)-2-(3-(difluoromethyl)-4,4,7,7-tetrafluoro-4,5,6,7-tetrahydro-1H-indazol-1-yl)-N-(2-(3,5-difluorophenyl)-1-(3-(2-oxoindolin-4-yl)pyridin-2-yl)ethyl)acetamide] | 97% | 20800 nM | 
O=C(Cn1nc(C(F)F)c2c1C(F)(F)CCC2(F)F)N[C@@H](Cc1cc(F)cc(F)c1)c1ncccc1-c1ccc2ccc(=O)[nH]c2c1 [Example 490D, (S)-2-(3-(difluoromethyl)-4,4,7,7-tetrafluoro-4,5,6,7-tetrahydro-1H-indazol-1-yl)-N-(2-(3,5-difluorophenyl)-1-(3-(2-oxo-1,2-dihydroquinolin-7-yl)pyridin-2-yl)ethyl)acetamide] | 87% | 38000 nM | 
NCc1ccc2[nH]cc(CC(=O)N[C@@H](Cc3cc(F)cc(F)c3)c3ncccc3-c3ccc(Cl)cc3)c2c1 [Example 491F, (S)-2-(5-(aminomethyl)-1H-indol-3-yl)-N-(1-(3-(4-chlorophenyl)pyridin-2-yl)-2-(3,5-difluorophenyl)ethyl)acetamide] | 18% | 7850 nM | 
NC(=O)c1cc(-c2cccnc2[C@H](Cc2cc(F)cc(F)c2)NC(=O)Cn2nc(C(F)(F)F)c3c2CCC3=O)ccc1F [Example 492B, (S)-5-(2-(2-(3,5-difluorophenyl)-1-(2-(4-oxo-3-(trifluoromethyl)-5,6-dihydrocyclopenta[c]pyrazol-1(4H)-yl)acetamido)ethyl)pyridin-3-yl)-2-fluorobenzamide] | 2% | > 53200 nM | 
Cc1c(C(F)F)nn(CC(=O)N[C@@H](Cc2cc(F)cc(F)c2)c2ncccc2-c2ccc(F)c(C(N)=O)c2)c1C(F)F [Example 493, (S)-5-(2-(1-(2-(3,5-bis(difluoromethyl)-4-methyl-1H-pyrazol-1-yl)acetamido)-2-(3,5-difluorophenyl)ethyl)pyridin-3-yl)-2-fluorobenzamide] | 48% | 33900 nM | 
NC(=O)c1cc(-c2cccnc2[C@H](Cc2cc(F)cc(F)c2)NC(=O)Cn2ccc3ccc(Cl)cc32)ccc1F [Example 494, (S)-5-(2-(1-(2-(6-chloro-1H-indol-1-yl)acetamido)-2-(3,5-difluorophenyl)ethyl)pyridin-3-yl)-2-fluorobenzamide] | 17% | 10400 nM | 
CC(=O)c1c(C)n(CC(=O)N[C@@H](Cc2cc(F)cc(F)c2)c2ncccc2-c2cccc(C(N)=O)c2)c2ccccc12 [Example 495, (S)-3-(2-(1-(2-(3-acetyl-2-methyl-1H-indol-1-yl)acetamido)-2-(3,5-difluorophenyl)ethyl)pyridin-3-yl)benzamide] | 85% |  | 15500 nM
CC(C)(C)OC(=O)Nc1ccc2[nH]cc(CC(=O)N[C@@H](Cc3cc(F)cc(F)c3)c3ncccc3-c3cccc(C(N)=O)c3)c2c1 [Example 496B, (S)-tert-butyl 3-(2-(1-(3-(3-carbamoylphenyl)pyridin-2-yl)-2-(3,5-difluorophenyl)ethylamino)-2-oxoethyl)-1H-indol-5-ylcarbamate] | 17% | 18400 nM | 
Cc1[nH]c2ccccc2c1CC(=O)N[C@@H](Cc1cc(F)cc(F)c1)c1ncccc1-c1cccc(C(N)=O)c1 [Example 497, (S)-3-(2-(2-(3,5-difluorophenyl)-1-(2-(2-methyl-1H-indol-3-yl)acetamido)ethyl)pyridin-3-yl)benzamide] | 67% | 27100 nM | 
Cc1cc2ccn(CC(=O)N[C@@H](Cc3cc(F)cc(F)c3)c3ncccc3-c3ccc(F)c(C(N)=O)c3)c2cc1C [Example 498F, (S)-5-(2-(2-(3,5-difluorophenyl)-1-(2-(5,6-dimethyl-1H-indol-1-yl)acetamido)ethyl)pyridin-3-yl)-2-fluorobenzamide] | 60% | 13200 nM | 
COc1ccc(CC(=O)N[C@@H](Cc2cc(F)cc(F)c2)c2ncccc2-c2cccc(C(N)=O)c2)c(OC)c1 [Example 499, (S)-3-(2-(2-(3,5-difluorophenyl)-1-(2-(2,4-dimethoxyphenyl)acetamido)ethyl)pyridin-3-yl)benzamide] | 22% | > 53000 nM | 
CC(=O)c1cn(CC(=O)N[C@@H](Cc2cc(F)cc(F)c2)c2ncccc2-c2cccc(C(N)=O)c2)c2ccccc12 [Example 500, (S)-3-(2-(1-(2-(3-acetyl-1H-indol-1-yl)acetamido)-2-(3,5-difluorophenyl)ethyl)pyridin-3-yl)benzamide] | 59% |  | 24300 nM
